# Values quoted from earlier work, collected in patent US10927398B2, “Compositions for CYP450 phenotyping using saliva samples” (Concordia University, Inc., priority 2015, dated 2021).
# Read-outs that look alike come from different tables or passages of the source.
# What was measured:
# [1] = cited from earlier work
# plasma protein = conditions: cited from earlier work
# [2] = Table of Exemplary Drugs, CYP3A4
# [3] = Table of Exemplary Drugs, CYP2C9
# [4] = Table of Exemplary Drugs, CYP2C19
# [5] = Table of Exemplary Drugs, CYP2D6
# [6] = Table of Exemplary Drugs, CYP1A2
SMILES,"HALF-LIFE [1, 2] [h]",PLASMA PROTEIN BINDING (plasma protein; [2]),further results
"CC[C@]1(O)C[C@H]2CN(CCc3c([nH]c4ccccc34)[C@@](C(=O)OC)(c3cc4c(cc3OC)N(C=O)[C@H]3[C@@](O)(C(=O)OC)[C@H](OC(C)=O)[C@]5(CC)C=CCN6CC[C@]43[C@@H]65)C2)C1 [Vincristine (Oncovin), Vincristine]",85,–,–
CCCCNC(=O)NS(=O)(=O)c1ccc(C)cc1 [Tolbutamide],–,–,"HALF-LIFE [1, 3]: 4.5 to 6.5 h"
CC1(C)NC(=O)N(c2ccc([N+](=O)[O-])c(C(F)(F)F)c2)C1=O [Nilutamide],–,–,"HALF-LIFE [1, 4]: 38 to 59.1 h; PLASMA PROTEIN BINDING (plasma protein; [4]): 80-84% ^"
C[C@H]1C[C@@H]2[C@H]([C@@H](O)C[C@@]3(C)[C@H]2CC[C@]3(O)C(=O)CO)[C@@]2(C)C=CC(=O)C=C12 [Methylprednisolone],2 to 3,78%,–
CCN(CC)CCCC(C)Nc1c2ccc(Cl)cc2nc2ccc(OC)cc12 (stereo not drawn) [Quinacrine],120,80-90% ^,–
O=C(CCCN1CC=C(n2c(=O)[nH]c3ccccc32)CC1)c1ccc(F)cc1 [Droperidol],2,–,–
"OCCOCCN1CCN(C2=Nc3ccccc3Sc3ccccc32)CC1 [Quetiapine (Seroquel), Quetiapine]",6 to 7,83%,–
O=P1(N(CCCl)CCCl)NCCCO1 (stereo not drawn) [Cyclophosphamide],–,–,HALF-LIFE ([1]; in vivo): 3 to 12 h; PLASMA PROTEIN BINDING (plasma protein; plasma): >60%
"O=c1[nH]c2ccccc2n1C1CCN(CCCC(c2ccc(F)cc2)c2ccc(F)cc2)CC1 [Pimozide (Orap), Pimozide]",55,–,–
"CC[C@]1(O)C[C@@H]2CN(CCc3c([nH]c4ccccc34)[C@@](C(=O)OC)(c3cc4c(cc3OC)N(C)[C@H]3[C@@](O)(C(=O)OC)[C@H](OC(C)=O)[C@]5(CC)C=CCN6CC[C@]43[C@@H]65)C2)C1 [Vinblastine (Velbane), Vinblastine]",24.8,98-99.7% ^,–
"CC[C@H](C)C(=O)O[C@H]1C[C@@H](C)C=C2C=C[C@H](C)[C@H](CC[C@@H]3C[C@@H](O)CC(=O)O3)[C@H]21 [Lovastatin (Mevacor), Lovastatin]",2 to 5,>95%,–
[H]/N=C(\N/C(=N/[H])Nc1ccc(Cl)cc1)NC(C)C [Proguanil],–,–,"HALF-LIFE [1, 4]: 12 to 18 h; PLASMA PROTEIN BINDING (plasma protein; [4]): 75%"
"CC(C)CN(C[C@@H](OP(=O)(O)O)[C@H](Cc1ccccc1)NC(=O)O[C@H]1CCOC1)S(=O)(=O)c1ccc(N)cc1 [Fosamprenavir (Lexiva), Fosamprenavir]",7.7,90%,–
"CN1C2CCCC1CC(NC(=O)c1nn(C)c3ccccc13)C2 (stereo not drawn) [Granisetron (Kytril), Granisetron]",3 to 24,65%,–
"CCN(CC)CC#CCOC(=O)C(O)(c1ccccc1)C1CCCCC1 (stereo not drawn) [Oxybutynin (Ditropan), Oxybutynin]",7 to 30,91-93% ^,–
"CCCCN(CCCC)CCC(O)c1cc2c(Cl)cc(Cl)cc2c2cc(C(F)(F)F)ccc12 (stereo not drawn) [Halofantrine (Halfan), Halofantrine]",140 to 240,60-70% ^,–
"CCC(C)n1ncn(-c2ccc(N3CCN(c4ccc(OCC5COC(Cn6cncn6)(c6ccc(Cl)cc6Cl)O5)cc4)CC3)cc2)c1=O (stereo not drawn) [Itraconazole (Sporanox), Itraconazole]",35 to 64,–,–
"CC1OC2(CS1)CN1CCC2CC1 (stereo not drawn) [Cevimeline (Evoxac), Cevimeline]",4 to 6,<20%,–
"CC(C)(C)NC(=O)[C@@H]1C[C@@H]2CCCC[C@@H]2CN1C[C@@H](O)[C@H](Cc1ccccc1)NC(=O)[C@H](CC(N)=O)NC(=O)c1ccc2ccccc2n1 [Saquinavir (Invirase), Saquinavir]",13,98%,–
"CC(C)c1nc(CN(C)C(=O)N[C@H](C(=O)N[C@@H](Cc2ccccc2)C[C@H](O)[C@H](Cc2ccccc2)NC(=O)OCc2cncs2)C(C)C)cs1 [Ritonavir (Norvir), Ritonavir]",3 to 5,–,–
"Cc1cccc(C)c1OCC(=O)N[C@@H](Cc1ccccc1)[C@@H](O)C[C@H](Cc1ccccc1)NC(=O)[C@H](C(C)C)N1CCCNC1=O [Lopinavir (Kaletra), Lopinavir]",5 to 6,98-99% ^,–
O=C1CCc2ccc(OCCCCN3CCN(c4cccc(Cl)c4Cl)CC3)cc2N1 [Aripiprazole],–,–,"HALF-LIFE [1, 5]: 75 h; PLASMA PROTEIN BINDING (plasma protein; [5]): >99%"
COc1cc([C@@H]2c3cc4c(cc3[C@@H](O[C@@H]3O[C@@H]5CO[C@@H](c6cccs6)O[C@H]5[C@H](O)[C@H]3O)[C@H]3COC(=O)[C@H]23)OCO4)cc(OC)c1O [Teniposide],5,>99%,"HALF-LIFE [1, 4]: 5 h; PLASMA PROTEIN BINDING (plasma protein; [4]): >99%"
"NC(=O)C[S+]([O-])C(c1ccccc1)c1ccccc1 (stereo not drawn) [Modafinil (Provigil), Modafinil]",7.5 to 15,60%,–
CC(NC(C)(C)C)C(=O)c1cccc(Cl)c1 (stereo not drawn) [Bupropion],19 to 21.3,84%,"HALF-LIFE [1, 4]: 19 to 21.3 h; PLASMA PROTEIN BINDING (plasma protein; [4]): 84%"
Cc1cc(-c2ccccc2)nnc1NCCN1CCOCC1 [Minaprine],–,–,"HALF-LIFE [1, 5]: 2 to 2.5 h"
Cc1c(O)cccc1C(=O)N[C@@H](CSc1ccccc1)[C@H](O)CN1C[C@H]2CCCC[C@H]2C[C@H]1C(=O)NC(C)(C)C [Nelfinavir],–,–,"HALF-LIFE [1, 4]: 3.5 to 5 h; PLASMA PROTEIN BINDING (plasma protein; [4]): 98%"

SMILES,"HALF-LIFE [1, 2] [h]",PLASMA PROTEIN BINDING (plasma protein; [2]),further results
CN(C)CCC(c1ccc(Cl)cc1)c1ccccn1 (stereo not drawn) [Chlorphenamine],–,–,PLASMA PROTEIN BINDING (plasma protein; [5]): 72%
CN(C)C[C@H]1CCCC[C@]1(O)c1cccc(O)c1 [O-desmethyltramadol],–,–,"HALF-LIFE [1, 5]: 9 h"
CN1C(=O)NC(=O)C(C)(C2=CCCCC2)C1=O (stereo not drawn) [Hexobarbital],–,–,PLASMA PROTEIN BINDING (plasma protein; [4]): 25%
"CCN(CC)CCNC(=O)c1c(C)[nH]c(/C=C2\C(=O)Nc3ccc(F)cc32)c1C [Sunitinib (Sutent), Sunitinib]",40 to 60,95%,–
"C[C@@H]1C[C@H]2[C@@H]3CCC4=CC(=O)C=C[C@]4(C)[C@@]3(F)[C@@H](O)C[C@]2(C)[C@@]1(O)C(=O)CO [Dexmethasone (Decadron), Dexmethasone]",–,–,PLASMA PROTEIN BINDING (plasma protein; plasma): 77%
"Cc1nc(Nc2ncc(C(=O)Nc3c(C)cccc3Cl)s2)cc(N2CCN(CCO)CC2)n1 [Dasatinib (Sprycel), Dasatinib]",3 to 5,96%,–
"C=C(c1ccc(C(=O)O)cc1)c1cc2c(cc1C)C(C)(C)CCC2(C)C [Bexarotene (Targretin), Bexarotene]",7,99%,–
Fc1ccc([C@@H]2CCNC[C@H]2COc2ccc3c(c2)OCO3)cc1 [Paroxetine],–,–,"HALF-LIFE [1, 5]: 15 to 21 h; PLASMA PROTEIN BINDING (plasma protein; [5]): 93-95% ^"
"CC(=O)O[C@@]12CO[C@@H]1C[C@H](O)[C@@]1(C)C(=O)[C@H](O)C3=C(C)[C@@H](OC(=O)[C@H](O)[C@@H](NC(=O)OC(C)(C)C)c4ccccc4)C[C@@](O)([C@@H](OC(=O)c4ccccc4)[C@H]21)C3(C)C [Docetaxel (Taxotere), Docetaxel]",11.1,94-97% ^,–
"CC[C@H](O)C(C[C@H](C)N(C)C)(c1ccccc1)c1ccccc1 [Levomethadyl (Orlaam), Levomethadyl]",–,80%,HALF-LIFE ([1]; in vivo): 35 to 60 h
"NS(=O)(=O)Cc1noc2ccccc12 [Zonisamide (Zonegran), Zonisamide]",–,40-60% ^,–
C=C(C)[C@H]1CC=C(C)CC1 [Limonene],–,–,"HALF-LIFE [1, 4]: 12 to 24 h"
COc1ccc(Cl)cc1C(=O)NCCc1ccc(S(=O)(=O)NC(=O)NC2CCCCC2)cc1 [Glibenclamide],–,–,PLASMA PROTEIN BINDING (plasma protein; [3]): 99%
C1CCC(C(CC2CCCCN2)C2CCCCC2)CC1 (stereo not drawn) [Perhexiline],–,–,"HALF-LIFE [1, 5]: 12 to 18 h"
"Cc1nnc2n1-c1ccc(Cl)cc1C(c1ccccc1Cl)=NC2 [Triazolam (Halcion), Triazolam]",–,–,HALF-LIFE ([1]; in vivo): 2.3 h; PLASMA PROTEIN BINDING (plasma protein; plasma): 89-94% ^
"Cc1ccc(-c2nc3ccc(C)cn3c2CC(=O)N(C)C)cc1 [Zolpidem (Ambien), Zolpidem]",–,–,HALF-LIFE ([1]; in vivo): 2.5 to 2.8 h
COCCCC/C(=N\OCCN)c1ccc(C(F)(F)F)cc1 [Fluvoxamine],–,–,"HALF-LIFE [1, 6]: ~14 to 16 h; HALF-LIFE [1, 5]: 15.6 h"
"CS(=O)(=O)CCNCc1ccc(-c2ccc3ncnc(Nc4ccc(OCc5cccc(F)c5)c(Cl)c4)c3c2)o1 [Lapatinib (Tykerb), Lapatinib]",24,>99%,–
"CN1CCN(C(=O)O[C@H]2c3nccnc3C(=O)N2c2ccc(Cl)cn2)CC1 [Eszopiclone (Lunesta), Eszopiclone]",–,52-59% ^,–
C[C@]12C=CC(=O)C=C1CC[C@@H]1[C@@H]2[C@@H](O)C[C@@]2(C)[C@H]1CC[C@]2(O)C(=O)CO [Prednisolone],2 to 4,70-90% ^,–
CC/C(=C(\c1ccccc1)c1ccc(OCCN(C)C)cc1)c1ccccc1 [Tamoxifen],120 to 170,99%,"HALF-LIFE [1, 6]: ~120 to 170 h; HALF-LIFE [1, 3]: 120 to 170 h; HALF-LIFE [1, 5]: 120 to 170 h; PLASMA PROTEIN BINDING (plasma protein; [6]): 99%; PLASMA PROTEIN BINDING (plasma protein; [3]): 99%; PLASMA PROTEIN BINDING (plasma protein; [5]): 99%"
"O=C1CN=C(c2ccccc2Cl)c2cc([N+](=O)[O-])ccc2N1 [Clonazepam (Klonopin), Clonazepam]",–,85%,HALF-LIFE ([1]; in vivo): 30 to 40 h
CCCC(C)(COC(N)=O)COC(=O)NC(C)C (stereo not drawn) [Carisoprodol],–,–,PLASMA PROTEIN BINDING (plasma protein; plasma): 60%
CSc1ccc2c(c1)N(CCC1CCCCN1C)c1ccccc1S2 (stereo not drawn) [Thioridazine],–,–,"HALF-LIFE [1, 5]: 21 to 24 h"
CN[C@@H](C)Cc1ccccc1 [Dextromethamphetamine],–,–,"HALF-LIFE [1, 5]: 12 h"
Cc1nc2n(c(=O)c1CCN1CCC(c3noc4cc(F)ccc34)CC1)CCCC2 [Risperidone],–,–,"HALF-LIFE [1, 5]: 3 to 20 h"
CN(CCOc1ccc(CC2SC(=O)NC2=O)cc1)c1ccccn1 (stereo not drawn) [Rosiglitazone],–,–,"HALF-LIFE [1, 3]: 3 to 4 h"
